Results: patent publication US20260027162A1, “MUCISPIRILLUM COMPOSITIONS AND CANCER TREATMENT METHODS THEREOF” (PRESIDENT AND FELLOWS OF HARVARD COLLEGE, priority 2022, published 2026)

System: human NKT cells
Experiment: XCL1 secretion from human NKT cells (ELISA)
Assay type: cell-based
Details: human NKT cell, FIG. 18
Protocol: Briefly, to generate human NKT cells the buffy coats from human donors' peripheral blood were obtained from RESEARCH BLOOD COMPONENTS LLC and separated using differential centrifugation on a FICOLL density gradient. Magnetically Isolated CD14^neg cells were cultured with 10 U/ml rhIL-2 for 5 days. Then, Vα24^+ hNKT cells were magnetically isolated and incubated for 2 days with mitomycin C-treated human dendritic cells loaded with α-galactosylceramide (α-GalCer)+20 U/ml rhIL-2. Then, the cells were harvested and further expanded for 10 days in complete RPMI medium+20 U/ml rhIL-2, with medium replacement every 2 days. Finally, the purity of Vα24Jα18^+ CD3^+ human NKT cells was estimated using flow cytometry (˜99%) and cells were frozen in complete RPMI medium+10% dimethyl sulfoxide (DMSO) at 5×10^6 cells per vial. For assaying the effect of M. schaedleri supernatant on human NKT cells, frozen cells were thawed and cultured in complete RPMI medium+rhIL-2 at cell density of 200,000 cells per well in a 96-well plate. The cells were treated with either sterile mBHI or M. schaedleri CDM at 20% volume per volume (v/v) for 16 h and then the culture supernatant was collected. As a positive control for activation, anti-human CD3 was used to stimulate the NKT cells. XCL1 concentration was measured using ONESTEP HUMAN XCL1 ELISA (ABCAM) according to the manufacturer's instructions. […]

SMILES: O=C(O)c1cccnc1 [Pool 3, nicotinic acid]
- NKT XCL1 production, metabolite pools: activity above that of the medium control
